Measurements published in patent US20240327450A1, “GLUCOSE DERIVATIVES AND ANTICANCER AGENT USING SAME” (ORBIO CORPORATION, priority 2021, published 2024).

Assays:
[1] = test system: nutritional deficit pancreatic cancer cells; conditions: Onodera, T. et al. J. Biol. Chem. 295, 16678-16690, 2020; cited from earlier work
[2] = test system: mouse insulinoma MIN6 cells; test: Viable cell activity by Calcein-AM fluorescence in MIN6 cells; format: cell-based; conditions: for cellular activity expressed as Calcein intensity: MIN6 cells at 5 DIV, 1,000 μM, vs negative control KRB; for cellular activity as assessed with Calcein: 30 minutes, vs KRB alone
Procedure: Effects of E2-ADG (synthesized in Example 2) and E2-ALG (synthesized in Example 4) on proliferation of cells were examined. A pancreatic beta cell line (insulinoma) MIN6 from mouse pancreas (Miyazaki J. et al., Endocrinology 127: 126-132, 1990) was used as the cells, and all experiments were performed using early passage cells with a passage number of 10 or less.
(§1) In this experiment, approximately 3,000 MIN6 cells per well were seeded in each well of a 96-well plate. When 5 DIV elapsed from initiation of culture, wells to which E2-ALG was administrated and wells to which E2-ADG was administrated were arranged in the same plate with minimal external disturbance, and administration was performed according to the previously established method (Sasaki, A. et al., Human Cell 2016, 29, 37-45). The E2-ALG was dissolved in a buffer to a concentration of 1,000 μM, administered to the MIN6 cells for 10 or 30 minutes, and then washed out with a buffer solution without the E2-ALG. Meanwhile, the E2-ADG at a concentration of 1,000 μM was administered in the same manner. Carbenoxolone was pre-dissolved in a buffer solution for the purpose of excluding uptake via Hemichannel and Gap junction (Sasaki, A. et al., Human Cell 2016, 29, 37-45).
A change in cellular activity was assessed using a live cell marker Calcein-AM. The Calcein-AM is permeable to a cell membrane, and after entering a cell, an AM moiety is cleaved by an esterase activity of the cell to produce Calcein which emits green fluorescence. The Calcein-AM was applied to the MIN6 cells according to a conventional method, green fluorescence emitted by the cells was quantitatively measured using a confocal quantitative image cytometer CellVoyager CQ1 (Yokogawa Electric Corporation), and image analysis was performed using software attached to the CQ1. A difference between an E2-ALG administration group and an E2-ADG administration group was statistically compared using Stat View 5.0. The Bonferroni-Dunn test was used for the statistical comparison. A value shown by MIN6 cells at the same time as above in a Krebs-Ringer buffer (KRB) solution without E2-ALG or E2-ADG was used as a negative control.
(§2) An administration test was performed in the same manner as in Example 5-1, except that M2-ADG (synthesized in Example 1) was used instead of E2-ADG, and M2-ALG (synthesized in Example 3) was used instead of E2-ALG. However, the M2-ADG or the M2-ALG was administered for 30 minutes after 4 DIV from initiation of culture, and a concentration of the M2-ADG or the M2-ALG was 10 μM, 100 μM, or 1,000 μM.

[3] = test system: mouse insulinoma MIN6 cells; test: Cell death by Propidium Iodide (PI) signal in MIN6 cells; format: cell-based; conditions: for occurrence of cell death (PI) / PI-positive cell death: MIN6 cells at 5 DIV, 1,000 μM; for occurrence of cell death (PI): both 10-minute and 30-minute administrations, vs negative control KRB; for effect on the cells (proportion of dead cells, PI) / cytotoxicity (PI) eliminated by PHT: MIN6 cells at 11 DIV; for effect on the cells (proportion of dead cells, PI) / proportion of dead cells expressed as a PI value / cytotoxicity (PI) eliminated by PHT: 90 minutes; for effect on the cells (proportion of dead cells, PI) / proportion of dead cells expressed as a PI value: vs KRB solution alone; for proportion of dead cells expressed as a PI value: MIN6 cells at 11 DIV, 1,000 μM; for cytotoxicity (PI) eliminated by PHT: compound 1,000 μM, PHT 150 μM
Procedure: as §1
An extent of occurrence of cell death was assessed using Propidium Iodide (PI), a red dye that is impermeable to a cell membrane. The PI was applied to the MIN6 cells simultaneously with the Calcein-AM. The principle of assessing cell death using PI is as follows. […] However, when the PI nonspecifically enters a cell due to loss of integrity of a cell membrane caused by deterioration of a cell state, the PI binds to a nucleus of the cell, causing the nucleus to emit red fluorescence. A degree of the red fluorescence was quantitatively measured using the CellVoyager CQ1, and image analysis was performed using the software attached to the CQ1. Additionally, the degree of occurrence of cell death was evaluated by statistically comparing the control group with the administration groups or the E2-ALG administration group with the E2-ADG administration group.
Using MIN6 cells with a passage number of 10 or less, E2-ALG or E2-ADG was applied to the MIN6 cells at a concentration of 1,000 μM for 90 minutes at 11 DIV of culture at a time when spheroids with a diameter of 100 μm or more are normally formed. Specifically, approximately 1,000 MIN6 cells per well were seeded in each well of a 96-well plate and E2-ALG was dissolved in a buffer to a concentration of 10 μM or 1,000 μM at 11 DIV, administered to the MIN6 cells for 90 minutes, and then rapidly washed out with a buffer solution without E2-ALG. Similarly, E2-ADG was applied simultaneously to other wells in the same plate. A cell death marker PI was used to statistically compare a control group with administration groups or an E2-ALG administration group with an E2-ADG administration group (FIG. 3).
Whether cell death in MIN6 cells caused by E2-ALG and E2-ADG was via a specific transport mechanism that is inhibited by PHT was analyzed on the same plate. […] The E2-ADG was also tested simultaneously in the same manner on the same plate and both were compared to a control.
as §2

colon cancer cells = conditions: Et3PAuCl alone; ACS Med. Chem. Lett. 8: 997-1001, 2017; cited from earlier work
[4] = MIN6 cells at 4 DIV, 10 μM, 30 minutes, vs negative control
[5] = MIN6 cells at 4 DIV, 100 μM, 30 minutes, vs negative control
[6] = MIN6 cells at 4 DIV, 1,000 μM, 30 minutes

Structure (SMILES): CC(=O)OC[C@H]1O[C@@H]([S-])[C@H](OC(C)=O)[C@@H](OC(C)=O)[C@@H]1OC(C)=O.CCP(CC)CC.[Au+] [Auranofin]
- effect in nutritional deficit pancreatic cancer cells [1]: effective

Structure (SMILES): CCP(CC)CC.OC[C@H]1OC(O)[C@H]([S][Au])[C@@H](O)[C@@H]1O (stereo partly drawn) [Compound E2-ADG]
- cellular activity expressed as Calcein intensity ([2]; 10-minute administration): slightly lower than that for the E2-ALG, but there was no statistically significant difference therebetween
- cellular activity expressed as Calcein intensity ([2]; 30-minute administration): clear decrease in cellular activity
- occurrence of cell death (PI) [3]: no statistically significant difference
- effect on the cells (proportion of dead cells, PI) ([3]; 10 μM): larger than that of the negative control (the KRB solution alone) as an average value, but not significantly different
- proportion of dead cells expressed as a PI value [3]: significant increase in a proportion of dead cells
- cytotoxicity (PI) eliminated by PHT [3]: approximately 75%

Structure (SMILES): CCP(CC)CC.OC[C@@H]1OC(O)[C@@H]([S][Au])[C@H](O)[C@H]1O (stereo partly drawn) [Compound E2-ALG]
- cellular activity expressed as Calcein intensity ([2]; 10-minute administration): slightly decreased an average value of the cellular activity compared to the negative control group, but there was no statistically significant difference
- cellular activity expressed as Calcein intensity ([2]; 30-minute administration): the cellular activity was clearly decreased compared to the negative control
- occurrence of cell death (PI) [3]: no statistically significant difference
- effect on the cells (proportion of dead cells, PI) ([3]; 10 μM): larger than that of the negative control (the KRB solution alone) as an average value, but not significantly different
- proportion of dead cells expressed as a PI value [3]: significant increase in a proportion of dead cells
- cytotoxicity (PI) eliminated by PHT [3]: approximately 75%

Structure (SMILES): CP(C)C.OC[C@H]1OC(O)[C@H]([S][Au])[C@@H](O)[C@@H]1O (stereo partly drawn) [Compound M2-ADG]
- cellular activity as assessed with Calcein ([2]; MIN6 cells at 4 DIV, 10 μM): no significant difference in cellular activity
- cellular activity as assessed with Calcein ([2]; MIN6 cells at 4 DIV, 100 μM): no significant difference in cellular activity
- cellular activity as assessed with Calcein ([2]; MIN6 cells at 4 DIV, 1,000 μM): significant decrease in cellular activity
- degree of cell death (PI) [3, 4]: no difference in a degree of cell death
- degree of cell death (PI) [3, 5]: an average value increased, but there was still no significant difference from the negative control
- degree of cell death (PI) [3, 6]: clear cell death was observed

Structure (SMILES): CP(C)C.OC[C@@H]1OC(O)[C@@H]([S][Au])[C@H](O)[C@H]1O (stereo partly drawn) [Compound M2-ALG]
- cellular activity as assessed with Calcein ([2]; MIN6 cells at 4 DIV, 10 μM): no significant difference in cellular activity
- cellular activity as assessed with Calcein ([2]; MIN6 cells at 4 DIV, 100 μM): no significant difference in cellular activity
- cellular activity as assessed with Calcein ([2]; MIN6 cells at 4 DIV, 1,000 μM): significant decrease in cellular activity
- degree of cell death (PI) [3, 4]: no difference in a degree of cell death
- degree of cell death (PI) [3, 5]: an average value increased, but there was still no significant difference from the negative control
- degree of cell death (PI) [3, 6]: clear cell death was observed

Structure (SMILES): CC[PH](CC)(CC)[Au][S][C@@H]1OC(CO)[C@@H](O)[C@H](O)C1O (stereo partly drawn) [DGG, reference compound]
- PI-positive cell death ([3]; 10 minutes): more PI-positive cell death than the negative control
- PI-positive cell death ([3]; 30 minutes): distinct PI-positive cell death

Structure (SMILES): CCP(CC)CC.[Au+].[Cl-] [Et3PAuCl, chloro(triethylphosphine)gold(I)]
- cytotoxicity to colon cancer cells (colon cancer cells): cytotoxic

Structure (SMILES): CC[PH](CC)(CC)[Au][S][C@H]1O[C@@H](CO)[C@H](O)[C@@H](O)[C@@H]1O [LGG, reference compound]
- PI-positive cell death ([3]; 10 minutes): PI-positive cell death comparable to that of the negative control
- PI-positive cell death ([3]; 30 minutes): only about as much PI-positive cell death as a negative control group
